Test results reported in BindingDB's records for doi:10.7270/Q2Z036M0 (Broad Institute, 2010).

Target: T1, S-ribosylhomocysteine lyase (Vibrio harveyi, UniProt B0LUE4)
T1 sequence (B0LUE4 whole entry): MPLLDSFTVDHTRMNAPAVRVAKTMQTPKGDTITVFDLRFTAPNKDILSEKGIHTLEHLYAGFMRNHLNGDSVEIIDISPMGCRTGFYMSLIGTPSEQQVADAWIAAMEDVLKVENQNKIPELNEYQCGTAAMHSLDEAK
Assay: modulation of V. harveyi AI-2 signalling – luminescence, dose retest, Vibrio harveyi, confirmation (AID 2724)

First: C=Cn1c(C(=O)O)ccc1-c1ccc(CC)cc1
Second: CCc1ccc(S(=O)(=O)Nc2ccc(Br)cn2)cc1 [MLS001211346]
The EC50 of the first is 1.8-fold lower: 2.07 µM for the first, 3.64 µM for the second.

Compared with `COc1cc(NC(=O)CN2C(=O)NC(c3ccccc3)(c3ccccc3)C2=O)cc(OC)c1` [MLS001176525], `CN(C)S(=O)(=O)c1ccc(NC(=S)NC(=O)Cc2ccccc2)cc1` [N-[[4-(dimethylsulfamoyl)phenyl]carbamothioyl]-2-phenyl-ethanamide] is higher in EC50: 1.57 µM for the first, greater than 160 µM for the second.

First: CCCc1ccc(S(=O)(=O)N(C)S(=O)(=O)c2ccc(F)cc2)cc1 [N-(4-fluorophenyl)sulfonyl-N-methyl-4-propylbenzenesulfonamide]
Second: Cc1cccc(NS(=O)(=O)c2ccc(Oc3ccccc3)cc2)n1 [SMR000071466]
The EC50 of the first is 1.6-fold lower: 1.62 µM for the first, 2.56 µM for the second.

`Cn1cnc(S(=O)(=O)Nc2ccc(OC(F)(F)F)cc2)c1` [SMR000314513] showed an EC50 of 4.39 µM.
